Laboratory results published in patent US12565481B2, “6,7-dimethoxy-3-(pyridin-2-yl)quinoline compounds for inhibiting RET” (Guangzhou Baiyunshan Pharmaceutical Holdings Co., Ltd. …, priority 2020, dated 2026).

Experiment: Pharmacokinetics study of mice
Format: in vivo
Conditions: mouse, plasma; male CD-1 mice, 2.5 mpk oral administration vs 0.5 mpk intravenous injection
Source text: The purpose of this experiment was to study the pharmacokinetics of the test compound in the plasma of male CD-1 mice after intravenous injection and oral administration.
The animals were randomly divided into two groups with 2 males in each group. The compounds were formulated into prescribed preparations. Intravenous formulations were formulated with 5% DMSO/95% (6% hydroxypropyl-β-cyclodextrin) to give a clear solution, and oral preparations were formulated with 0.1% Tween80/0.5% HPMC aqueous solution to give a homogeneous suspension.
Whole blood samples were collected from the saphenous vein of the animals 5 minutes, 15 minutes, 30 minutes, 1 hour, 2 hours, 4 hours, 8 hours, 12 hours, and 24 hours after administration. The whole blood sample was added to the centrifuge tube containing anticoagulant, and centrifuged at 3200 g for 10 minutes at 4° C. The supernatant of plasma was taken, frozen quickly on dry ice, and then stored in a −70±10° C. refrigerator until LC-MS/MS analysis.
WinNonlin™ Version 6.3.0 (Pharsight, Mountain View, Calif.) pharmacokinetic software was used to process the plasma drug concentration data of the compounds with a non-compartmental model. The peak concentration (Cmax), peak time (Tmax) and quantifiable end time were obtained directly from the blood drug concentration-time profile. […]

A bioavailability of 48.9% was found for `CCN1CCN(Cc2cc(F)c(NC(=O)Cc3ccc(-c4cnc5cc(OC)c(OC)cc5c4)nc3)cc2C(F)(F)F)CC1` [Compound 1] in this work.
